Data on two compounds can be found in patent publication US6165984A, “Naringin and naringenin as inhibitors of acyl CoA-cholesterol-o-acyltransferase” (Korea Institute of Science & Technology, priority 1997, dated 2000).

For one test, the system named is hepatic cells. The settings on record: rabbits, six weeks. How it is done:
The same procedure as in (Step 1) was repeated except that 30 three-month old New Zealand White rabbits (Yeonam Horticulture and Animal Husbandry College, Korea) each weighing about 2.5 to 2.6 kg were used in place of the rats, and the rabbits were fed for six weeks with three different diets, i.e., RC4 diet containing 1% cholesterol (Control group); 1% cholesterol plus 1 mg/kg Lovastatin® (Comparative group); and 1% cholesterol plus 0.1% naringin, respectively.
Thereafter, the livers were separated from the rabbits and the histopathological observations were carried out as follows.
The rabbits were anesthetized with an intramuscular injection of ketamine (75 mg/kg) and subjected to an abdominal incision. […] The fixed liver was washed sufficiently with water, dehydrated stepwise with 70%, 80%, 90% and 100% ethanol and, then, embedded in paraffin. The embedded liver was sectioned in 4 μm thickness with a microtome and stained with hematoxylin and eosin. The stained liver specimen was made transparent with xylene, mounted with permount, and then observed under a microscope to confirm the presence of lesions.

A short description of test [1]: Serum γGTP in a habitual drinker (Example 7, Step 4). In kind it is in vivo. The settings on record: human, oral, 6 mg/kg daily, 30 days; day 0: 129 IU/l. How it is done: On the other hand, naringin was orally administered to a person, who had drunk alcoholic beverages habitually in an amount of 100 cc per day, at a daily dose of 6 mg/kg for 30 days and serum γGTP level was determined just before the administration (day 0) and 30 days after the administration (day 30). Consequently, initial serum γGTP level at day 0 was 129 IU/l, while that of day 30 decreased to 69 IU/l which is within the normal range.

Test [2] is described as follows: Serum GOT, GPT and γGTP in a person (Example 7, Step 4). In kind it is in vivo. The conditions noted are these: human, oral, 10 mg/kg daily. How it is done:
Naringin was orally administered to a person at a daily dose of 10 mg/kg for 68 days and serum GOT, GPT and γGTP levels were determined just before the administration (day 0), and 45 and 68 days after the administration (day 45 and day 68), respectively. Consequently, serum GOT levels at day 45 and day 68 decreased by 17%, respectively, in comparison to that of day 0. Serum GPT levels at day 45 and day 68 decreased by 15% and 19%, respectively, in comparison to that of day 0. Further, serum γGTP levels at day 45 and day 68 decreased by 25% and 51%, respectively, in comparison to that of day 0.

Test [3] can be described thus: Serum GOT and GPT levels in rats (Example 7). The conditions noted are these: 1% cholesterol diet plus 0.02% naringin, six weeks. The format is in vivo, Sprague-Dawley rat. An excerpt:
20 four-week-old Sprague-Dawley rats (Taihan laboratory animal center, Korea) each weighing about 90 to 110 g were evenly divided into two dietary groups by a randomized block design. The rats of the two groups were fed with two different high-cholesterol diets, i.e., AIN-76 laboratory animal diet (ICN Biochemicals, Cleveland, Ohio, U.S.A.) containing 1% cholesterol (Control group), and 1% cholesterol plus 0.02% naringin, respectively.
Blood samples were taken from the rats of the two dietary groups and serum GOT (glutamate-oxaloacetate transaminase) and GPT (glutamate-pyruvate transaminase) levels were determined in accordance with the method of Reitman and Frankel (Reitman, S. and J. S. Frankel, Am. J. Clin. Pathol., 28, 56(1956)). GOT and GPT are synthesized in the liver and heart, and released into blood stream upon the damage of these organs. Accordingly, GOT and GPT are representative markers of the liver-function and high serum GOT and GPT levels mean severe damage of the liver.

The subject of test [4] is macrophage-lipid complex on the arterial endothelium. Put plainly: Fatty streak analysis: macrophage-lipid complex on main artery of cholesterol-fed rabbits (Example 6). In kind it is in vivo, New Zealand White rabbit. The settings on record: for inhibition of accumulation of macrophage-lipid complex on the arterial endothelium (conclusion): 0.1% in 1% cholesterol diet; for area of macrophage-lipid complex accumulated on the arterial endothelium, compared to control group / M-L (macrophage-lipid) complex area: 1% cholesterol diet, 6 weeks, 0.1% naringin or naringenin; for M-L (macrophage-lipid) complex area: proportion of total arterial area, control 35. From the text:
RC4 diet comprises 7.6% moisture, 22.8% crude protein, 2.8% crude fat, 8.8% crude ash, 14.4% crude cellulose and 43.6% soluble nitrogen-free substances. The rabbits were bred for 6 weeks while being allowed free access to the diets and water. The rabbits bred in (Step 1) were sacrificed and their chest were incised. The main artery was cut out therefrom in a length of about 5 cm downward from the site 1 cm above the aortic valve and the fat surrounding the main artery was removed. The main artery was incised in the middle along the longitudinal axis and pinned to a dish. The moist artery was photographed and, then, staining of fatty streak was carried out in accordance with the method of […]., et al. (J. Lab. Clin. […] A part of the incised main artery was washed three times by 2 min. with anhydrous propylene glycol and stained for 30 min. with a saturated solution of Oil Red O (ORO, Sigma Co.) dissolved in propylene glycol. Thereafter, the artery was washed twice by 3 min. with 85% propylene glycol to remove remaining staining solution and, then washed with physical saline. The artery was photographed and the photograph was traced. The area of stained region (fatty streak region) was determined with an image analyzer (LEICA, Q-600, Germany) and its proportion (%) to the total arterial area was calculated. On the other hand, the other part of the main artery was stained in accordance with hematoxylin-eosin (H&E) and Masson's trichrome staining methods and observed under a microscope to confirm whether the macrophage-lipid complexes were accumulated in the intima, internus, elastic lamina and media.

For the compound `C[C@@H]1O[C@@H](O[C@H]2[C@H](Oc3cc(O)c4c(c3)O[C@H](c3ccc(O)cc3)CC4=O)O[C@H](CO)[C@@H](O)[C@@H]2O)[C@H](O)[C@H](O)[C@H]1O` [naringin, Naringin], in the test with hepatic cells (1% cholesterol diet plus 0.1% naringin), the “occurrence of fatty liver” value is recorded as “strongly inhibits the occurrence of fatty liver”. Also, the “microscopic features of the liver (FIGS. 2A-2C)” value in the test with hepatic cells (1% cholesterol diet, 1 mg/kg Lovastatin, 0.1% naringin) was “normal and the deposition of fat is not observed”. Also, the “serum γGTP level at day 30” value in test [1] was found to be 69 IU/l. In addition, in test [2] (day 45), the “decrease of serum GOT level, day 45 vs day 0” value stood at 17%; the “decrease of serum GPT level, day 45 vs day 0” value turned out to be 15%; the “decrease of serum γGTP level, day 45 vs day 0” value is recorded as 25%. Moreover, in test [2] (day 68), the “decrease of serum GOT level, day 68 vs day 0” value came to 17% and the “decrease of serum GPT level, day 68 vs day 0” value came out at 19%. In addition, in test [3], the “serum GOT level lower than control group” value was “about 30%” and the “serum GPT level lower than control group” value is recorded as about 10%. Further, the “layer of macrophage-lipid complex on the arterial endothelium (FIGS. 1A-1C)” value in test [4] (1 mg/kg Lovastatin, 0.1% naringin, control: thick layer) was “no or very thin layers of macrophage-lipid complex”. For the same compound, in test [4], the “inhibition of accumulation of macrophage-lipid complex on the arterial endothelium (conclusion)” value is “strongly inhibit”. Besides, in test [4] (1 mg/kg Lovastatin), the “area of macrophage-lipid complex accumulated on the arterial endothelium, compared to control group” value is on record as “decreased significantly” and the “M-L (macrophage-lipid) complex area” value amounted to 12%.

Regarding `O=C1C[C@@H](c2ccc(O)cc2)Oc2cc(O)cc(O)c21` [naringenin], the “inhibition of accumulation of macrophage-lipid complex on the arterial endothelium (conclusion)” value in test [4] was “strongly inhibit”. Further, in test [4] (1 mg/kg Lovastatin), the “area of macrophage-lipid complex accumulated on the arterial endothelium, compared to control group” value is given as “decreased significantly” and the “M-L (macrophage-lipid) complex area” value worked out at 13%.
